“And” between values parts separate entries of the source, which are not always exact repeats. Equal values may be shown once.
How the values were obtained:
MMP-9 = target: T1, MMP-9 (Homo sapiens, UniProt P14780); test: In vitro MMP inhibition, IC50 determination (fluorogenic substrate I); format: biochemical; conditions: value in parenthesis; read-out: MMP-9 (IC-50)
T1 construct: made in house; host or cells: MMP-9-transfected HT1080 cells (spent media)
Protocol: Several hydroxamic acids and salts thereof were analyzed in in vitro assays to determine their ability to inhibit the MMP cleavage of peptide substrates. […] and IC50 constants were calculated from the assayed hydroxamic acid-MMP interactions. Human recombinant MMP-1, MMP-2, MMP-9, MMP-13, and MMP-14 were used in this assay. All enzymes were prepared in Assignee's laboratories following usual laboratory procedures. Protocols for the preparation and use of these enzymes are available in the scientific literature. See, e.g., Enzyme Nomenclature (Academic Press, San Diego, Calif., 1992) (and the citations therein). See also, Freije et al., “Molecular cloning and expression of collagenase-3, a novel human matrix metalloproteinase produced by breast carcinomas,” J Biol. Chem., 269(24), 16766-16773 (1994). The MMP-9 proenzyme was purified by gelatin Sepharose chromatography from spent media of MMP-9-transfected HT1080 cells provided by Dr. Howard Welgus of Washington University (St. Louis, Mo.). All MMPs were activated using 4-aminophenylmercuric acetate (“APMA”, Sigma Chemical, St. Louis, Mo.) or trypsin. MMP-9 also was activated using human recombinant MMP-3 (purified in Assignee's laboratory following standard cloning and purification techniques). […] Substrate (I) was purchased from Baychem (Redwood City, Calif.), and substrate II was prepared Assignee's laboratory. Substrate I was used in the IC50 determination assays, while substrate II was used in the Ki determination assays. In the absence of MMP inhibitory activity, either substrate is cleaved at the Gly-Leu peptide bond. […] The stock solutions of the assayed hydroxamic acids (or salts thereof) were prepared in 1% dimethyl sulfoxide (DMSO). […] The experiment controls contained the same amount of Buffer A/DMSO as the assayed sample, but contained no hydroxamic acid (or salt thereof). The assays from which the IC50 determinations were made were performed as follows. […] Louis, Mo.). The assayed hydroxamic acid samples were incubated in MicrofluorTM White Plates (Dynatech, Chantilly, Va.) and analyzed on a Perkin Elmer […] plate reader (Norwalk, Conn.). The excitation wavelength was 328 nm, and the emission wavelength-415 nm. […] As stated in the previous paragraph, samples containing varying concentrations of the same assayed hydroxamic acid were prepared. Inhibition was measured as a reduction in fluorescent intensity as a function of MMP inhibitor concentration. […] All values in Table 2 are given in nM units. The IC50 measurements are in parenthesis.

MMP-14 = target: T2, MMP-14 (Homo sapiens, UniProt P50281); test: as above; format: biochemical; conditions: value in parenthesis; read-out: MMP-14 (IC-50)
T2 construct: The catalytic domain enzyme was expressed in E. coli inclusion bodies, solubilized in urea; made in house
Protocol: Several hydroxamic acids and salts thereof were analyzed in in vitro assays to determine their ability to inhibit the MMP cleavage of peptide substrates. […] and IC50 constants were calculated from the assayed hydroxamic acid-MMP interactions. Human recombinant MMP-1, MMP-2, MMP-9, MMP-13, and MMP-14 were used in this assay. All enzymes were prepared in Assignee's laboratories following usual laboratory procedures. Protocols for the preparation and use of these enzymes are available in the scientific literature. See, e.g., Enzyme Nomenclature (Academic Press, San Diego, Calif., 1992) (and the citations therein). See also, Freije et al., “Molecular cloning and expression of collagenase-3, a novel human matrix metalloproteinase produced by breast carcinomas,” J Biol. Chem., 269(24), 16766-16773 (1994). The MMP-14 full length cDNA was provided by Dr. Gregory Goldberg of Washington University (St. Louis, Mo.). The catalytic domain enzyme was expressed in E. coli inclusion bodies, solubilized in urea, purified on a preparative […] reverse phase HPLC column, and then refolded in the presence of zinc acetate and purified for use. All MMPs were activated using 4-aminophenylmercuric acetate (“APMA”, Sigma Chemical, St. Louis, Mo.) or trypsin. MMP-9 also was activated using human recombinant MMP-3 (purified in Assignee's laboratory following standard cloning and purification techniques). […] Substrate (I) was purchased from Baychem (Redwood City, Calif.), and substrate II was prepared Assignee's laboratory. Substrate I was used in the IC50 determination assays, while substrate II was used in the Ki determination assays. In the absence of MMP inhibitory activity, either substrate is cleaved at the Gly-Leu peptide bond. […] The stock solutions of the assayed hydroxamic acids (or salts thereof) were prepared in 1% dimethyl sulfoxide (DMSO). […] The experiment controls contained the same amount of Buffer A/DMSO as the assayed sample, but contained no hydroxamic acid (or salt thereof). The assays from which the IC50 determinations were made were performed as follows. […] Louis, Mo.). The assayed hydroxamic acid samples were incubated in MicrofluorTM White Plates (Dynatech, Chantilly, Va.) and analyzed on a Perkin Elmer […] plate reader (Norwalk, Conn.). The excitation wavelength was 328 nm, and the emission wavelength-415 nm. […] As stated in the previous paragraph, samples containing varying concentrations of the same assayed hydroxamic acid were prepared. Inhibition was measured as a reduction in fluorescent intensity as a function of MMP inhibitor concentration. […] All values in Table 2 are given in nM units. The IC50 measurements are in parenthesis.

T1 sequence (P14780 107-707 limits assumed): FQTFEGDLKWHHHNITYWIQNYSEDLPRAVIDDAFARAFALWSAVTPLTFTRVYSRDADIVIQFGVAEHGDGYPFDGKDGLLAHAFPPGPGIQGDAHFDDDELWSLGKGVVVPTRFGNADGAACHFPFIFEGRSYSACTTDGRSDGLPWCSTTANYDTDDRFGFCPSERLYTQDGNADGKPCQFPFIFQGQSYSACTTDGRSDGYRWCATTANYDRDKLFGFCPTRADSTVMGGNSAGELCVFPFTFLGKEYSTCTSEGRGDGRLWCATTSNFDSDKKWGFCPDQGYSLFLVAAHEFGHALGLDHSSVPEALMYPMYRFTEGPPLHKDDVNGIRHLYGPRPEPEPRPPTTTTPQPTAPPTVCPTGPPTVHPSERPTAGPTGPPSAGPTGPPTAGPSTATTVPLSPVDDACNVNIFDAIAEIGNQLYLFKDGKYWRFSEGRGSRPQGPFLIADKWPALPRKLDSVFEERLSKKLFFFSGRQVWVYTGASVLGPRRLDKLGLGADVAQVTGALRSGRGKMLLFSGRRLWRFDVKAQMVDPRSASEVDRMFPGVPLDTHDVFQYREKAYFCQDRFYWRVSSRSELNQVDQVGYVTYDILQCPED

Row | IC50 (MMP-9) | IC50 (MMP-14) [nM] | SMILES
1 | 1 nM | 6710 | CCCCCCc1ccc(N2CCN(S(=O)(=O)C3(C(=O)NO)CCN(CCOC)CC3)CC2)cc1 [Example 199]
2 | 6.3 nM | 1170 | COCCN1CCC(C(=O)NO)(S(=O)(=O)N2CCN(c3ccc(OC(F)(F)F)cc3)CC2)CC1 [Example 202]
3 | < 0.1 nM | 1490 | CCCc1ccc(N2CCN(S(=O)(=O)C3(C(=O)NO)CCN(CCOC)CC3)CC2)cc1 [Example 200]
4 | 3.2 nM and 1.9 nM | 648 | O=C(NO)C1(S(=O)(=O)N2CCN(c3ccc(OC(F)(F)F)cc3)CC2)CCN(C2CC2)CC1 [Example 203]
5 | 5.7 nM | 301 | COCCN1CCC(C(=O)NO)(S(=O)(=O)N2CCN(c3ccc(Br)cc3)CC2)CC1 [Example 201]

Reference: patent publication US20050209278A1, “Piperidinyl- and piperazinyl-sulfonylmethyl hydroxamic acids and their use as protease inhibitors” (priority 2002, published 2005)
